# Measurements: PubChem BioAssay (NCI)
#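 The compound was tested at five concentrations on cells cultured in 96-well plates, with a 48-hour exposure period. TGI: concentration producing complete growth inhibition.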
# Columns and labels:
# Assay in all cases: DTP human tumour cell line panel, 48 h
# HCT-116 colon = test system: HCT-116 colon
# XF 498 CNS = test system: XF 498 CNS
# NCI-H23 lung = test system: NCI-H23 lung
# OVCAR-8 ovarian = test system: OVCAR-8 ovarian
# OVCAR-3 ovarian = test system: OVCAR-3 ovarian
# NCI-H522 lung = test system: NCI-H522 lung
# TK-10 renal = test system: TK-10 renal
# SF-539 CNS = test system: SF-539 CNS
# M14 melanoma = test system: M14 melanoma
# M19-MEL melanoma = test system: M19-MEL melanoma
# MCF7 breast = test system: MCF7 breast
# PC-3 prostate = test system: PC-3 prostate
# CCRF-CEM leukemia = test system: CCRF-CEM leukemia
smiles,measurement,setting,value
CCCCCCCCCCCC(=O)OC[C@@H](C[As](=O)(O)O)OC(=O)CCCCCCCCCCC,TGI,HCT-116 colon,21.7 µM
same,TGI,XF 498 CNS,29 µM
same,TGI,NCI-H23 lung,17.8 µM
same,TGI,OVCAR-8 ovarian,23.6 µM
same,TGI,OVCAR-3 ovarian,16.5 µM
same,TGI,NCI-H522 lung,6.5 µM
same,TGI,TK-10 renal,25 µM
same,TGI,SF-539 CNS,27.8 µM
same,TGI,M14 melanoma,8.47 µM
same,TGI,M19-MEL melanoma,19.4 µM
same,TGI,MCF7 breast,9.24 µM
same,TGI,PC-3 prostate,8.14 µM
same,TGI,CCRF-CEM leukemia,> 94.4 µM
